Measured values taken from patent US9365541B2, “Compounds for use in the treatment of parasitic diseases” (IRBM—SCIENCE PARK S.P.A., priority 2012, dated 2016).

Key:
[1] = test system: Plasmodium falciparum 3D7; assay: P. falciparum growth inhibition assay (Pf-LDH); assay type: cell-based; conditions: Plasmodium falciparum, Erythrocyte; P. falciparum 3D7 infected erythrocytes, 72 h incubation, PfLDH readout
Procedure: Basic culture of Plasmodium falciparum 3D7 parasites (Malaria Research and Reference Reagent Resource Center (MR4), MR4 Number: MRA-102).
Starting with a culture with a parasitemia of about 10% (and 5% hematocrit), 0.5 ml of the culture is placed in a fresh 100 mm petri dish with 0.95 ml of fresh erythrocytes (50% hematocrit) and 8.55 ml of culture medium, giving a new starting parasitemia of 0.5%. The petri dish is then incubated at 37° C. in a humidified gas-tight plastic box flushed with a gas mixture consisting of 93% N2, 4% CO2, and 3% O2. The culture medium is changed daily. The supernatant is removed by gently tipping the dish without disturbing the settled cells and aspirating the medium with a Pasteur pipette connected to a vacuum pump. A small amount of the concentrated cells is taken to prepare a blood smear for determination of the parasitemia. Normally, the cultures are split twice a week. If the parasites are growing very slowly then fresh erythrocytes are added to the culture no later than after 7 days. The cultures are then split 1:2 if the parasitemia is lower than 0.5%. To avoid the necessity of daily medium change on weekends, a culture with a 2.5% hematocrit and 0.1-0.2% parasitemia is set up and can be left for 3 days without medium change.
Standard medium consists of RPMI 1640, supplemented with 25 mM HEPES, 24 mM NaHCO3, 0.36 mM hypoxanthine, 100 μg/ml Neomycin, 5 g/1 Albumax® II, and washed human red blood cells (rbcs) A+.
P. falciparum Growth Inhibition Assay (Pf-LDH)
Compounds of the invention were assessed for in vitro antimalarial activity against a cloroquine sensitive (3D7) strain of the malaria parasite Plasmodium falciparum, using a lactate dehydrogenase (PfLDH) assay.
EC50 Determination by Pf-LDH Assay
384 plates (where compounds to be tested are dispensed) with 25 μl of parasite inoculum (parasitemia: 0.25%, hematocrit: 2%) are incubated at 37° C. in an atmosphere of 4% CO2, 3% O2, 93% N2. After 72 h of incubation, plates are frozen at −70° C. overnight and thawed at room temperature for at least 4 h. To evaluate PfLDH activity, 70 μl of freshly made reaction mix (143 mM sodium L-lactate, 143 μM 3-acetyl pyridine adenine dinucleotide (APAD), 178.75 μM Nitro Blue tetrazolium chloride (NBT), 286 μg/ml diaphorase (2.83 U/ml), 0.7% Tween 20, 100 mM Tris-HCl pH 8.0) is dispensed using a Multidrop Combi dispenser. Plates are shaken to ensure mixing and absorbance at 650 nm is monitored in a plate reader after 10 min of incubation at room temperature.
Negative controls (0% Effect) are produced by addition of DMSO to the proper wells.
Positive controls (100% Effect) are produced by addition of 150 nM Artemisinin (Sigma-Aldrich, 361593)
After result normalization using positive and negative controls, compound potency is determined by fitting the following equation: % inh=Ymin+(Ymax−Ymin)/(1+(X/EC50)^slope)) Where: • Ymin=minimum percentage effect • Ymax=maximum percentage effect • EC50=the concentration of the compound at which 50% effect is reached • Slope=the slope of the curve calculated at the EC50 Histone Hyperacetylation and Immunodetection of Altered Histone Modifications Assay

human HDAC1 = target: T1, human HDAC1 (Homo sapiens, UniProt Q13547); assay: Homo sapiens HDAC1 inhibition assay (Fluor-de-Lys, enzymatic); assay type: biochemical; conditions: human HDAC enzymatic assay; read-out: hHDAC IC50
T1 construct: made in house; host or cells: HeLa (ATCC CCL-2), mammalian cells
T1 sequence (Q13547 whole entry): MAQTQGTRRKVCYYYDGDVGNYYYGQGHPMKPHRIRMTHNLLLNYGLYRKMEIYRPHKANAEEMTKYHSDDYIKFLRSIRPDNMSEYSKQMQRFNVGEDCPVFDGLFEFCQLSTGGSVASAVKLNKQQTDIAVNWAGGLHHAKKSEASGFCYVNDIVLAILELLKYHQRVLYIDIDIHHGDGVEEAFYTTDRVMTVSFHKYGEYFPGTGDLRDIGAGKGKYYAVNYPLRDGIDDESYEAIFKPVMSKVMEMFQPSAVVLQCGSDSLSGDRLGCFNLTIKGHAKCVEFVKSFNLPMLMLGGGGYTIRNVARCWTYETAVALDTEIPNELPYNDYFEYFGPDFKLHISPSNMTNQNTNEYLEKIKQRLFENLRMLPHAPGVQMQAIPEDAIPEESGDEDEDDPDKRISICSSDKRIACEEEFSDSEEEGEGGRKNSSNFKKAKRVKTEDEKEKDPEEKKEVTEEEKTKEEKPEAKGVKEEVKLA
Procedure: Biology Homo sapiens HDAC1 Inhibition Assay Overview:
The aim of the assay is to evaluate the inhibition of the deacetylase activity of human HDAC1. To such goal an acetylated substrate is added to the enzyme mix; the resulting enzymatic product is converted to a fluorescent molecule by the addition the enzyme trypsine (developer solution). Fluorescence intensity is inversely proportional to the rate of inhibition of the enzyme (as indicated in the material section below).
Reagents of the HDAC Fluorescent Activity Assay are purchased from Enzo Life Sciences (http://www.enzolifesciences.com/BML-AK500/fluor-de-lys-hdac-fluorometric-activity-assay-kit/) and feature the Fluor-de-Lys™ Substrate/Developer System.
c) Trichostatin A (TSA) Stock
TSA (Sigma-Aldrich, T8552) is provided as a 10 mM stock solution in 100% dimethylsulfoxide (DMSO).
Diluted Substrate Solution
The final concentration in the assay is 20 μM.
Diluted Developer Solution
2 μM [final] TSA to this solution increases its ability to stop the reaction.
The HDAC1 enzyme is diluted in assay buffer prior to each use from a fresh aliquot of enzyme.
The final concentration in the assay is 1-2 nM.
Test compounds should be prepared in 100% DMSO and transferred to the assay by a nano volume dispenser to reach the appropriate concentration and the appropriate DMSO concentration (0.25%) in the reaction.

Row | EC50 [1] | IC50 (human HDAC1) | Compound
1 | 1000 to 5000 nM | 1000 to 5000 nM | CNC(=O)CCCCC[C@H](NC(=O)CN1CCCCC1)c1ncc(-c2ccc3ccccc3c2)[nH]1 [Entry 1]
2 | 1000 to 5000 nM | 1000 to 5000 nM | CNC(=O)CCCCC[C@H](NC(=O)c1ccnc2c1CCCN2)c1ncc(-c2ccc3ccccc3c2)[nH]1 [Entry 2, (S)-N-(7-(methylamino)-1-(5-(naphthalen-2-yl)-1H-imidazol-2-yl)-7-oxoheptyl)-5,6,7,8-tetrahydro-1,8-naphthyridine-4-carboxamide]
3 | < 1000 nM | < 1000 nM | CNC(=O)CCCCC[C@H](NS(=O)(=O)c1cccc([N+](=O)[O-])c1)c1ncc(-c2ccc3ccccc3c2)[nH]1 [Entry 3]
4 | 1000 to 5000 nM | < 1000 nM | CNC(=O)CCCCC[C@H](NC(=O)[C@H]1CCN(C)C1)c1ncc(-c2ccc3ccccc3c2)[nH]1 [Entry 4, (S)-1-methyl-N-((S)-7-(methylamino)-1-(5-(naphthalen-2-yl)-1H-imidazol-2-yl)-7-oxo-heptyl)pyrrolidine-3-carboxamide]
5 | 1000 to 5000 nM | < 1000 nM | CNC(=O)CCCCC[C@H](NC(=O)C1CCN(C)CC1)c1ncc(-c2ccc3ccccc3c2)[nH]1 [Entry 5, (S)-1-methyl-N-(7-(methylamino)-1-(5-(naphthalen-2-yl)-1H-imidazol-2-yl)-7-oxo-heptyl)piperidine-4-carboxamide]
6 | 1000 to 5000 nM | 1000 to 5000 nM | CNC(=O)CCCCC[C@H](NC(=O)Cn1ccnn1)c1ncc(-c2cc3ccccc3nc2OC)[nH]1 [Entry 6, (S)-7-(2-(1H-1,2,3-triazol-1-yl)acetamido)-7-(5-(2-methoxyquinolin-3-yl)-1H-imidazol-2-yl)-N-methylheptanamide]
7 | 1000 to 5000 nM | < 1000 nM | CNC(=O)CCCCC[C@H](NC(=O)Cn1nnc2ccccc21)c1ncc(-c2cc3ccccc3nc2OC)[nH]1 [Entry 7]
8 | 1000 to 5000 nM | < 1000 nM | CCc1nc2ccccc2n1CCC(=O)N[C@@H](CCCCCC(=O)NC)c1ncc(-c2cc3ccccc3nc2OC)[nH]1 [Entry 8, (S)-7-(3-(2-ethyl-1H-benzo[d]imidazol-1-yl)propanamido)-7-(5-(2-methoxyquinolin-3-yl)-1H-imidazol-2-yl)-N-methylheptanamide]
9 | 1000 to 5000 nM | < 1000 nM | CNC(=O)CCCCC[C@H](NC(=O)c1cc(C)nn1C)c1ncc(-c2cc3ccccc3nc2OC)[nH]1 [Entry 9, (S)-N-(1-(5-(2-methoxyquinolin-3-yl)-1H-imidazol-2-yl)-7-(methylamino)-7-oxoheptyl)-1,3-dimethyl-1H-pyrazole-5-carboxamide]
10 | 1000 to 5000 nM | > 5000 nM | CNC(=O)CCCCC[C@H](NC(=O)c1cncs1)c1ncc(-c2ccc3cccnc3c2)[nH]1 [Entry 10]
11 | > 5000 nM | > 5000 nM | CNC(=O)CCCCC[C@H](NC(=O)Cn1cncn1)c1ncc(-c2ccc(-n3cccn3)cc2)[nH]1 [Entry 11, (S)-7-(2-(1H-1,2,4-triazol-1-yl)acetamido)-7-(5-(4-(1H-pyrazol-1-yl)phenyl)-1H-imidazol-2-yl)-N-methylheptanamide]
12 | 1000 to 5000 nM | 1000 to 5000 nM | CNC(=O)CCCCC[C@H](NC(=O)c1cnsc1)c1ncc(-c2ccc(-n3cccn3)cc2)[nH]1 [Entry 12, (S)-N-(1-(5-(4-(1H-pyrazol-1-yl)phenyl)-1H-imidazol-2-yl)-7-(methylamino)-7-oxoheptyl)isothiazole-4-carboxamide]
13 | 1000 to 5000 nM | 1000 to 5000 nM | CNC(=O)CCCCC[C@H](NC(=O)c1cccc2nc(C)c(C)nc12)c1ncc(-c2ccc3ccccc3c2)[nH]1 [Entry 13, (S)-2,3-dimethyl-N-(7-(methylamino)-1-(5-(naphthalen-2-yl)-1H-imidazol-2-yl)-7-oxo-heptyl)quinoxaline-5-carboxamide]
14 | 1000 to 5000 nM | 1000 to 5000 nM | CNC(=O)CCCCC[C@H](NC(=O)c1cncs1)c1ncc(-c2ccc3cc(OC)cnc3c2)[nH]1 [Entry 14]
15 | 1000 to 5000 nM | < 1000 nM | CNC(=O)CCCCC[C@H](NC(=O)Cc1cnc2ccccn12)c1ncc(-c2ccc3ccncc3c2)[nH]1 [Entry 15, (S)-7-(2-(imidazo[1,2-a]pyridin-3-yl)acetamido)-7-(5-(isoquinolin-7-yl)-1H-imidazol-2-yl)-N-methylheptanamide]
16 | < 1000 nM | 1000 to 5000 nM | CNC(=O)CCCCC[C@H](NC(=O)c1ccns1)c1ncc(-c2ccc(-c3ccn(C)n3)cc2)[nH]1 [Entry 16, (S)-N-(1-(5-(4-(1-methyl-1H-pyrazol-3-yl)phenyl)-1H-imidazol-2-yl)-7-(methylamino)-7-oxoheptyl)isothiazole-5-carboxamide]
17 | < 1000 nM | 1000 to 5000 nM | CNC(=O)CCCCC[C@H](NC(=O)c1cnc(C)s1)c1ncc(-c2ccc(-c3ccn(C)n3)cc2)[nH]1 [Entry 17, (S)-2-methyl-N-(1-(5-(4-(1-methyl-1H-pyrazol-3-yl)phenyl)-1H-imidazol-2-yl)-7-(methylamino)-7-oxoheptyl)thiazole-5-carboxamide]
18 | > 5000 nM | 1000 to 5000 nM | CNC(=O)CCCCC[C@H](NC(=O)C1CN(C)C1)c1ncc(-c2cc3ccccc3[nH]c2=O)[nH]1 [Entry 18, (S)-1-methyl-N-(7-(methylamino)-7-oxo-1-(5-(2-oxo-1,2-dihydroquinolin-3-yl)-1H-imidazol-2-yl)heptyl)azetidine-3-carboxamide]
19 | 1000 to 5000 nM | 1000 to 5000 nM | CNC(=O)CCCCC[C@H](NC(=O)c1cncs1)c1ncc(-c2ccc3nc(C(F)(F)F)ccc3c2)[nH]1 [Entry 19, (S)-N-(7-(methylamino)-7-oxo-1-(5-(2-(trifluoro-methyl)quinolin-6-yl)-1H-imidazol-2-yl)heptyl)thiazole-5-carboxamide]
20 | 1000 to 5000 nM | < 1000 nM | CNC(=O)CCCCC[C@H](NC(=O)Cn1nnc(N2CCCC2)n1)c1ncc(-c2ccc3ccccc3c2)[nH]1 [Entry 20]
21 | 1000 to 5000 nM | < 1000 nM | CNC(=O)CCCCC[C@H](NC(=O)Cc1ccccc1)c1ncc(-c2ccc3ccccc3c2)[nH]1 [Entry 21]
22 | < 1000 nM | – | COc1ccc2[nH]c(C)c(CC(=O)N[C@@H](CCCCCC(N)=O)c3ncc(-c4ccc5ccccc5c4)[nH]3)c2c1 [Entry 96, (S)-7-(2-(5-methoxy-2-methyl-1H-indol-3-yl)acetamido)-7-(5-(naphthalen-2-yl)-1H-imidazol-2-yl)heptanamide]
23 | – | 1000 to 5000 nM | CNC(=O)CCCCC[C@H](NC(=O)[C@H]1CCN(C)C1)c1ncc(-c2ccc3ccccc3c2)[nH]1 [Entry 149, (S)-1-methyl-N-((S)-7-(methylamino)-1-(5-(naphthalen-2-yl)-1H-imidazol-2-yl)-7-oxo-heptyl)pyrrolidine-3-carboxamide]
24 | < 1000 nM | – | CNC(=O)CCCCC[C@H](NC(=O)c1cncs1)c1ncc(-c2cc3ccccc3nc2OC)[nH]1 [Entry 178, (S)-N-(1-(5-(2-methoxyquinolin-3-yl)-1H-imidazol-2-yl)-7-(methylamino)-7-oxoheptyl)thiazole-5-carboxamide]
